In patent US20170121344A1 (Siga Technologies, Inc., priority 2009, published 2017):
Where two headings read alike, the source gives them in different places.

How the values were obtained:
[1] = tested on: Dengue-2 (Strain New Guinea C); assay: Viral yield assay against Dengue-2 in Vero cells; format: cell-based, Dengue virus; details: Dengue virus, read-out: Activity (EC50 in μM) DENV-2
Method in brief: (§1)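 Vero cells were infected with dengue virus at an MOI of 0.1, treated with compound or DMSO vehicle, and kept at 37° C. Supernatant virus was harvested 48 hours post infection and titered on Vero cells, with EC50 derived from yield reduction.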

[2] = tested on: DENV-1; assay: Viral yield assay against DENV-1 in Vero cells; format: cell-based; details: Dengue virus
Method in brief: as §1

[3] = tested on: DENV-3; assay: Viral yield assay against DENV-3 in Vero cells; format: cell-based; details: Dengue virus
Method in brief: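 Vero cells were infected with dengue-2 at MOI 0.1, treated with compound (DMSO control), and kept at 37° C. They were harvested 48 hours post infection and yield was titered on Vero cells. EC50 came from the yield curve, and the other serotypes were run in a similar way.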

[4] = tested on: DENV-4; assay: Viral yield assay against DENV-4 in Vero cells; format: cell-based; details: Dengue virus
Method in brief: as §1

[5] = DENV2, viral yield assay, Vero cells, MOI 0.1, 48 hours post infection

O=C(O)CN(CC(=O)O)c1c(C(=O)Nc2cccc(C(F)(F)F)c2)sc2nc(-c3cccs3)ccc12 [Compound 363, 2-[carboxymethyl-[6-(2-thienyl)-2-[[3-(trifluoromethyl)phenyl]carbamoyl]thieno[2,3-b]pyridin-3-yl]amino]acetic acid]
EC50 ([1]; DENV2, Vero cells): < 5 µM | EC50 ([2]; DENV1): 5 to 25 µM | EC50 ([3]; DENV3): > 25 µM | EC50 ([4]; DENV4): > 25 µM

Nc1c(C(=O)Nc2cccc(Cl)c2)sc2nc(-c3cccs3)ccc12 [Compound 445, 3-amino-N-(3-chlorophenyl)-6-(2-thienyl)thieno[2,3-b]pyridine-2-carboxamide]
EC50 [1, 5]: < 5 µM | EC50 ([2]; DENV1, viral yield assay): < 5 µM | EC50 ([3]; DENV3, viral yield assay): < 5 µM | EC50 ([4]; DENV4, viral yield assay): < 5 µM

Nc1c(C(=O)Nc2ccc(Br)cc2)sc2nc(-c3ccc(Cl)cn3)ccc12 [Compound 349, 3-amino-N-(4-bromophenyl)-6-(5-chloro-2-pyridyl)thieno [2,3-b]pyridine-2-carboxamide]
EC50 [1, 5]: < 5 µM | EC50 ([2]; DENV1, viral yield assay): < 5 µM | EC50 ([3]; DENV3, viral yield assay): < 5 µM | EC50 ([4]; DENV4, viral yield assay): < 5 µM

COc1ccc(OC)c(NC(=O)c2sc3nc(-c4cccs4)ccc3c2N)c1 [Compound 441, 3-amino-N-(2,5-dimethoxyphenyl)-6-(2-thienyl)thieno[2,3-b]pyridine-2-carboxamide]
EC50 ([1]; DENV2, Vero, 48 h): < 5 µM | EC50 ([2]; DENV1, viral yield assay): < 5 µM | EC50 ([3]; DENV3, viral yield assay): < 5 µM | EC50 ([4]; DENV4, viral yield assay): < 5 µM

NCC(=O)Nc1c(C(=O)Nc2nnc(-c3ccccc3)s2)sc2nc3c(cc12)CCCCC3 [Compound 296, 3-(2-aminoacetamido)-N-(5-phenyl-1,3,4-thiadiazol-2-yl)-6,7,8,9-tetrahydro-5H-cyclohepta[b]thieno[3,2-e]pyridine-2-carboxamide]
EC50 ([1]; DENV2, Vero cells): < 5 µM | EC50 ([2]; DENV1): < 5 µM | EC50 ([3]; DENV3): < 5 µM | EC50 ([4]; DENV4): < 5 µM

C=CCSc1ccc(NC(=O)c2sc3nc(-c4cccc(OC)c4)ccc3c2N)cc1 [Compound 542, N-(4-allylsulfanylphenyl)-3-amino-6-(3-methoxyphenyl)thieno[2,3-b]pyridine-2-carboxamide]
EC50 [1, 5]: < 5 µM | EC50 ([2]; DENV1, viral yield assay): < 5 µM | EC50 ([3]; DENV3, viral yield assay): < 5 µM | EC50 ([4]; DENV4, viral yield assay): < 5 µM

Nc1c(C(=O)Nc2ccc(Br)cn2)sc2nc(-c3ccc(Cl)cc3)ccc12 [Compound 335, 3-amino-N-(5-bromo-2-pyridyl)-6-(4-chlorophenyl)thieno [2,3-b]pyridine-2-carboxamide]
EC50 [1, 5]: < 5 µM | EC50 ([2]; DENV1, viral yield assay): < 5 µM | EC50 ([3]; DENV3, viral yield assay): < 5 µM | EC50 ([4]; DENV4, viral yield assay): < 5 µM

Nc1c(C(=O)Nc2ccccc2Br)sc2nc(-c3cccs3)ccc12 [Compound 462, 3-amino-N-(2-bromophenyl)-6-(2-thienyl)thieno[2,3-b]pyridine-2-carboxamide]
EC50 [1, 5]: < 5 µM | EC50 ([2]; DENV1, viral yield assay): < 5 µM | EC50 ([3]; DENV3, viral yield assay): < 5 µM | EC50 ([4]; DENV4, viral yield assay): < 5 µM

Nc1c(C(=O)Nc2ccc(Cl)cc2F)sc2nc(-c3ccc(F)cc3)ccc12 [Compound 617, 3-amino-N-(4-chloro-2-fluoro-phenyl)-6-(4-fluorophenyl)thieno[2,3-b]pyridine-2-carboxamide]
EC50 [1, 5]: < 5 µM | EC50 ([2]; DENV1, viral yield assay): < 5 µM | EC50 ([3]; DENV3, viral yield assay): < 5 µM | EC50 ([4]; DENV4, viral yield assay): < 5 µM

Nc1c(C(=O)Nc2cccc(C(F)(F)F)c2)sc2nc3c(cc12)CCCCC3 [Compound 368, 3-amino-N-(3-(trifluoromethyl)phenyl)-6,7,8,9-tetrahydro-5H-cyclohepta[b]thieno [3,2-e]pyridine-2-carboxamide]
EC50 [1, 5]: < 5 µM | EC50 ([2]; DENV1, viral yield assay): < 5 µM | EC50 ([3]; DENV3, viral yield assay): < 5 µM | EC50 ([4]; DENV4, viral yield assay): < 5 µM

Cc1ccc(-c2ccc3c(N)c(C(=O)Nc4ccc(Br)cc4)sc3n2)cc1 [Compound 485, 3-amino-N-(4-bromophenyl)-6-(p-tolyl) thieno[2,3-b]pyridine-2-carboxamide]
EC50 [1, 5]: < 5 µM | EC50 ([2]; DENV1, viral yield assay): < 5 µM | EC50 ([3]; DENV3, viral yield assay): < 5 µM | EC50 ([4]; DENV4, viral yield assay): < 5 µM

Nc1c(C(=O)Nc2ccc(C(F)(F)F)cc2)sc2nc(-c3cccs3)ccc12 [Compound 459, 3-amino-6-(2-thienyl)-N-[4-(trifluoromethyl)phenyl]thieno[2,3-b] pyridine-2-carboxamide]
EC50 [1, 5]: < 5 µM | EC50 ([2]; DENV1, viral yield assay): < 5 µM | EC50 ([3]; DENV3, viral yield assay): < 5 µM | EC50 ([4]; DENV4, viral yield assay): < 5 µM

Nc1c(C(=O)Nc2ccc(Cl)nc2)sc2nc(-c3ccc(Cl)cc3)ccc12 [Compound 353, 3-amino-6-(4-chlorophenyl)-N-(6-chloro-3-pyridyl)thieno [2,3-b]pyridine-2-carboxamide]
EC50 [1, 5]: < 5 µM | EC50 ([2]; DENV1, viral yield assay): < 5 µM | EC50 ([3]; DENV3, viral yield assay): < 5 µM | EC50 ([4]; DENV4, viral yield assay): < 5 µM

COc1cccc(-c2ccc3c(N)c(C(=O)Nc4ccc(C(F)(F)F)cc4)sc3n2)c1 [Compound 448, 3-amino-6-(3-methoxyphenyl)-N-[4-(trifluoromethyl)phenyl]thieno[2,3-b] pyridine-2-carboxamide]
EC50 [1, 5]: < 5 µM | EC50 ([2]; DENV1, viral yield assay): < 5 µM | EC50 ([3]; DENV3, viral yield assay): < 5 µM | EC50 ([4]; DENV4, viral yield assay): < 5 µM

COc1cccc(-c2ccc3c(N)c(C(=O)Nc4ccc(Cl)c(C(F)(F)F)c4)sc3n2)c1 [Compound 498, 3-amino-N-[4-chloro-3-(trifluoromethyl)phenyl]-6-(3-methoxyphenyl)thieno [2,3-b]pyridine-2-carboxamide]
EC50 [1, 5]: < 5 µM | EC50 ([2]; DENV1, viral yield assay): < 5 µM | EC50 ([3]; DENV3, viral yield assay): < 5 µM | EC50 ([4]; DENV4, viral yield assay): < 5 µM

Cc1ccc(NC(=O)c2sc3nc(-c4cccs4)ccc3c2N)cc1F [Compound 458, 3-amino-N-(3-fluoro-4-methyl-phenyl)-6-(2-thienyl)thieno [2,3-b]pyridine-2-carboxamide]
EC50 [1, 5]: < 5 µM | EC50 ([2]; DENV1, viral yield assay): < 5 µM | EC50 ([3]; DENV3, viral yield assay): < 5 µM | EC50 ([4]; DENV4, viral yield assay): < 5 µM

Nc1c(C(=O)Nc2cccc(F)c2)sc2nc(-c3cccs3)ccc12 [Compound 464, 3-amino-N-(3-fluorophenyl)-6-(2-thienyl)thieno[2,3-b]pyridine-2-carboxamide]
EC50 [1, 5]: < 5 µM | EC50 ([2]; DENV1, viral yield assay): < 5 µM | EC50 ([3]; DENV3, viral yield assay): < 5 µM | EC50 ([4]; DENV4, viral yield assay): < 5 µM

Cc1ccnc2sc(C(=O)Nc3nnc(-c4ccccc4)s3)c(N)c12 [Compound 288, 3-amino-4-methyl-N-(5-phenyl-1,3,4-thiadiazol-2-yl)thieno[2,3-b]pyridine-2-carboxamide]
EC50 [1, 5]: < 5 µM | EC50 ([2]; DENV1, viral yield assay): < 5 µM | EC50 ([3]; DENV3, viral yield assay): 5 to 25 µM | EC50 ([4]; DENV4, viral yield assay): < 5 µM

COc1cccc(-c2ccc3c(N)c(C(=O)Nc4ccc(Br)cc4)sc3n2)c1 [Compound 446, 3-amino-N-(4-bromophenyl)-6-(3-methoxyphenyl)thieno[2,3-b]pyridine-2-carboxamide]
EC50 [1, 5]: < 5 µM | EC50 ([2]; DENV1, viral yield assay): < 5 µM | EC50 ([3]; DENV3, viral yield assay): < 5 µM | EC50 ([4]; DENV4, viral yield assay): < 5 µM

COc1cccc(-c2ccc3c(N)c(C(=O)Nc4ccccc4C(F)(F)F)sc3n2)c1 [Compound 449, 3-amino-6-(3-methoxyphenyl)-N-[2-(trifluoromethyl)phenyl]thieno[2,3-b] pyridine-2-carboxamide]
EC50 [1, 5]: < 5 µM | EC50 ([2]; DENV1, viral yield assay): < 5 µM | EC50 ([3]; DENV3, viral yield assay): < 5 µM | EC50 ([4]; DENV4, viral yield assay): < 5 µM

Nc1c(C(=O)Nc2ccccc2C(F)(F)F)sc2nc(-c3cccs3)ccc12 [Compound 437, 3-amino-6-(2-thienyl)-N-[2-(trilfuoromethyl)phenyl]thieno[2,3-b] pyridine-2-carboxamide]
EC50 [1, 5]: < 5 µM | EC50 ([2]; DENV1, viral yield assay): < 5 µM | EC50 ([3]; DENV3, viral yield assay): < 5 µM | EC50 ([4]; DENV4, viral yield assay): < 5 µM

O=C1CCC(=O)N(c2cccc(C(F)(F)F)c2)C(=O)c2sc3nc(-c4cccs4)ccc3c2N1 [Compound 306, 2-(thiophen-2-yl)-10-(3-(trifluoromethyl)phenyl)-7,8-dihydro-5H-pyrido[3′,2′:4,5]thieno[3,2-b][1,5]diazonine-6,9,11(10H)-trione]
EC50 [1, 5]: < 5 µM | EC50 ([2]; DENV1, viral yield assay): < 5 µM | EC50 ([3]; DENV3, viral yield assay): < 5 µM | EC50 ([4]; DENV4, viral yield assay): < 5 µM
